{"source": "patent US11440906B2", "about": "“Biguanide derivatives and their rearrangement products for use in the treatment of cancer” (CENTRE NATIONAL DE LA RECHERCHE SCIENTIFIQUE, priority 2017, dated 2022)", "key": {"A375 Sensitive cells": {"system": "A375 Sensitive cells", "assay": "Viability test, trypan blue exclusion, A375 Sensitive cells", "type": "cell-based, human", "conditions": "for viability at 5 µM / viability at 10 µM: viable cells as percentage of DMSO control", "outline": "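A375 (B-Raf, CDKN2A, PTEN mutant) cells were exposed to compounds at 5.0 or 10 μM for 24 or 48 hr; CRO15 also at 0.5–50 μM for 48 hr or 5 μM for 2–48 hr; DMSO control. Viable cells were counted by trypan blue exclusion, as % of control. Three experiments in triplicate.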"}, "[1]": {"system": "Different melanoma cell lines with various mutations", "assay": "Viability test with CRO15, melanoma cell lines with various mutations", "type": "cell-based, human", "conditions": "5 μM, 48 hours; FIG. 1C", "excerpt": "Different melanoma cell lines were purchased from the American Tissue Culture Collection: A375 and WM9 cells are mutated on B-Raf, CDKN2A and PTEN proteins; SKmel28 cells are mutated on B-Raf and P53 proteins; 1205Lu cells are mutated on B-Raf and PTEN proteins; G-361 cells are mutated on B-Raf and CDKN2A proteins; C8161 cells are mutated on B-Raf and K-Ras proteins; WM3912 cells are mutated on B-Raf and CDKN2A proteins; MeWo cells are mutated on P53 and CDKN2A proteins; WM3918 presents no mutations on characteristic proteins.\nFor trypan blue staining, […] of cells (melanoma and normal human cells) were aseptically transferred to a 1.5 mL clear Eppendorf tube and incubated for 3 min at room temperature with an equal volume of 0.4% trypan blue solution. Viable cells were counted and the results are expressed as the percentage of the value of control cells. All the experiments are performed 3 times in triplicate.\nDifferent melanoma cell lines with various mutations, patient cells with various mutations and normal human cells, were treated with 5 μM of CRO15 for 48 hours or DMSO (Control). At the end of stimulation, viable cells were counted using the trypan blue dye exclusion method. The results are normalized as percentages compare to the control and data means±SEM of three independent experiments performed in triplicate *p<0.05; **p<0.01; ***p<0.001. […]"}, "[2]": {"system": "A375 sensitive melanoma cells", "assay": "In vivo murine cancer model, A375 sensitive xenograft", "set-up": "species or system BALB/c nu/nu (nude) mice", "conditions": "0.7 mg/mouse/day intraperitoneal", "procedure": "Animal experiments were carried out in accordance with the Declaration of Helsinki and were approved by a local ethical committee CIEPAL (Comité Institutionnel d'Ethique Pour l'Animal de Laboratoire-Azur). Female immune-deficient BALB/c nu/nu (nude) mice were obtained at 5 weeks of age from Envigo Laboratory (Gannat, France). Nude mice were inoculated subcutaneously with A375 sensitive or resistant melanoma cells (1.0×10^6 cells/mouse). After tumor apparition (±5 days), animals received intraperitoneal injection of Labrafil (Control), PLX4032 (0.7 mg/mouse/day) or CRO15 (0.7 mg/mouse/day) dissolved in Labrafil. The growth tumor curves were determined by measuring the tumor volume using the equation V=(L*W2)/2 (V=tumor volume, W=tumor width, L=tumor length). At the end of the experiment, mice were euthanized by cervical dislocation and tumors were taken for western blot and immunofluorescence experiments (LC3, Cleaved Caspase 3). TUNEL assay was performed using the In Situ Cell Death Detection Kit (Roche, Meylan, France). The results are shown in FIGS. 3A and 3B (A375 sensitive melanoma cells), and 4B and 4C (A375 resistant melanoma cells)."}, "AMPK": {"system": "AMPK", "assay": "Western blot assays, A375 Sensitive cells", "type": "cell-based, human", "conditions": "5 μM, 6 hr, 12 hr or 24 hr; FIG. 2", "procedure": "Western blot analyses were performed as described (Lehraiki et al., 2014). Proteins were extracted in buffer containing 50 mmol/l Tris-HCl (pH 7.5), 15 mmol/1, NaCl, 1% Triton X-100, and 1× protease and phosphatase inhibitors. Briefly, cell lysates […] were separated by SDS-PAGE, transferred onto a polyvinylidene fluoride membrane (Millipore), and then exposed to the appropriate antibodies. Proteins were visualized with the ECL System from Amersham. The western blot analyses shown are representative of at least three independent experiments.\nWestern Blot analysis: A375 Sensitive cells were treated with 5 μM of CRO15 for different time (6 hr, 12 hr or 24 hr) or with DMSO (Control) for 24 hr."}}, "note": "Where two headings read alike, the source gives them in different places."}
{"smiles": "Nc1nc(Nc2ccccc2SSc2ccccc2Nc2nc(N)nc(C(Cl)(Cl)Cl)n2)nc(C(Cl)(Cl)Cl)n1", "note": "[CRO15, N2,N2′-(disulfanediylbis(2,1-phenylene))bis(6-(trichloromethyl)-1,3,5-triazine-2,4-diamine)]", "values": [{"measurement": "decrease of the viability compared with PLX4032", "setting": "A375 Sensitive cells; 5 μM each, 48 hr, FIG. 1A", "value": "more important with CRO15 than with PLX4032"}, {"measurement": "cell viability of A375 S cells, kinetic", "setting": "A375 Sensitive cells; 5 μM, 2 hr to 48 hr, FIG. 1A", "value": "induces a decrease of the viability of melanoma cells"}, {"measurement": "cell viability, A375 sensitive melanoma cells", "setting": "A375 Sensitive cells; 5 μM, 48 hr, FIG. 4A", "value": "induces a decrease of the cell viability"}, {"measurement": "dose-response on melanoma cells viability", "setting": "A375 Sensitive cells; 0.5-50 μM, 48 hr, FIG. 1B", "value": "dose-response relationship"}, {"measurement": "viability at 5 µM", "setting": "A375 Sensitive cells; Homo sapiens, A-375, 5 μM, 24 h, read-out: Viab A375 5 μM/ 24 h", "value": 36, "unit": "%"}, {"measurement": "viability at 5 µM", "setting": "A375 Sensitive cells; Homo sapiens, A-375, 5 μM, 48 h, read-out: Viab A375 5 μM/ 48 h", "value": 27, "unit": "%"}, {"measurement": "viability at 10 µM", "setting": "A375 Sensitive cells; Homo sapiens, A-375, 24 h, read-out: Viab A375 10 μM/ 24 h", "value": 23, "unit": "%"}, {"measurement": "viability at 10 µM", "setting": "A375 Sensitive cells; Homo sapiens, A-375, 48 h, read-out: Viab A375 10 μM/ 48 h", "value": 2.6, "unit": "%"}, {"measurement": "IC50", "setting": "A375 Sensitive cells; Homo sapiens, A-375, A375 Sensitive cells, 48 hr, read-out: IC50 of CRO15", "value": 3.75, "unit": "µM"}, {"measurement": "viability of different melanoma cell lines with various mutations", "setting": "[1]", "value": "induces a decrease of the viability"}, {"measurement": "tumor volume", "setting": "[2]; FIG. 3A", "value": "reduces"}, {"measurement": "tumor weight", "setting": "[2]; FIG. 3B", "value": "reduces"}, {"measurement": "activation of AMPK (western blot)", "setting": "AMPK", "value": "induces an activation of AMPK"}]}
